Data set [1] deals with M. tuberculosis H37Rv (ATCC 27294). Nature of the data set: MIC by broth dilution method, M. tuberculosis H37Rv. The class given is cell-based. The conditions noted are these: Mycobacterium tuberculosis, 504 h. A general note: In broth dilution the organism is exposed to a series of concentrations in liquid medium.
Data set [2] relates to macrophage J774 cells line. Description: Cytotoxicity assay (MTT) in macrophage J774 cells. The class given is cell-based. To be noted: J774 cells, 24 hrs, MTT. As to the method:
The study was carried out using macrophage J774 cells line (ATCC-USA). Cells were grown in Rosewell Park Memorial Institute Medium (RPMI) containing 10% fetal calf serum (FCS) and supplemented with 75 mg/liter penicillin, 100 mg/liter streptomycin, 110 mg/liter Sodium pyruvate, 2.38 gm/liter HEPES, 0.05 mM 2 β-mercaptoethanol, and 2 gm/liter NaHCO3, in a humidified atmosphere in 5% CO2 at 37° C., and were sub-cultured at 1:4 ratio once a week.
Cells were plated at a density of 3×10^4 cells/cm^2 and maintained in culture medium for 12 hours. Cells were seeded onto 96-well flat bottom plates and FCS was reduced to 5% for the experiment. Stock solutions of compounds IA1 to IIC10 were prepared fresh to avoid oxidation. Cells were incubated with the compounds (40 μg/ml) for 24 hrs.
After the completion of incubation, the medium was removed and cell viability was evaluated by assaying for the ability of functional mitochondria to catalyze the reduction of 3-(4,5-dimethylthiazol-2-yl)-2,5-diphenyltetrazolium bromide (MTT) to form formazan salt by mitochondrial dehydrogenases, and determined by Elisa reader at 450 nm (Multiskan Spectrum; Thermo Electron Corporation, USA). Percentage cytotoxicity was calculated with respect to the untreated cells.

Setting [3] is: broth dilution, 3 weeks, read-out: MIC M. tb H37Rv.
[4] abbreviates: text summary: sensitive H37Rv as well as MDR and XDR strains of M. tuberculosis, read-out: MIC value.

≈ marks a conversion by molar mass, not a printed value. Where two headings read alike, the source gives them in different places. Bounds are passed on as bounds.

`Cc1ccc(-c2nnnn2-c2ccc(OC[C@@]3(C)Cn4cc([N+](=O)[O-])nc4O3)cc2)cc1` [IB3, (R)-2-{4-[5-(4-methylphenyl)-1H-tetrazol-1-yl]phenoxymethyl}-2,3-dihydro-2-methyl-6-nitroimidazo[2,1-b]oxazole]: the results for the minimal inhibitory concentration (MIC) in data set [1] (setting [3]) and in data set [1] (setting [4]) were 4 µg/mL (≈ 9.23 µM) and 1 to 4 µg/mL (≈ 2.31 to 9.23 µM), respectively. The compound also had a Cytotoxicity in data set [2] above 40 µg/mL.
Regarding `C[C@]1(COc2ccc(-n3cc(-c4ccc(F)cc4F)nn3)cc2)Cn2cc([N+](=O)[O-])nc2O1` [IA7, (R)-2-{4-[4-(2,4-difluorophenyl)-1H-1,2,3-triazol-1-yl]phenoxymethyl}-2,3-dihydro-2-methyl-6-nitroimidazo[2,1-b]oxazole], in data set [1] (setting [3]), the minimum inhibitory concentration (MIC) (commonly the lowest concentration that inhibits growth of the organism) came out at 2 µg/mL (≈ 4.4 µM). The compound also returned a Cytotoxicity in data set [2] above 40 µg/mL.
`CCc1ccc(-c2nnnn2-c2ccc(OC[C@@]3(C)Cn4cc([N+](=O)[O-])nc4O3)cc2)cc1` [IB6, (R)-2-{4-[5-(4-ethylphenyl)-1H-tetrazol-1-yl]phenoxymethyl}-2,3-dihydro-2-methyl-6-nitroimidazo[2,1-b]oxazole]: the MIC in data set [1] (setting [3]) was 2 µg/mL (≈ 4.47 µM); in data set [1] (setting [4]), 1 to 4 µg/mL (≈ 2.23 to 8.94 µM). Moreover, the Cytotoxicity in data set [2] is above 40 µg/mL.
Turning to `C[C@]1(COc2ccc(-n3nnnc3Oc3ccc(C(F)(F)F)cc3)cc2)Cn2cc([N+](=O)[O-])nc2O1` [IB8, (R)-2-{4-[5-(4-trifluoromethylphenoxy)-1H-tetrazol-1-yl]phenoxymethyl}-2,3-dihydro-2-methyl-6-nitroimidazo[2,1-b]oxazole], the MIC in data set [1] (setting [3]) was 4 µg/mL (≈ 7.95 µM); in data set [1] (setting [4]), 1 to 4 µg/mL (≈ 1.99 to 7.95 µM). The same compound displayed a Cytotoxicity in data set [2] above 40 µg/mL.
On to `C[C@]1(COc2ccc(-n3cc(-c4cccc(F)c4)nn3)cc2)Cn2cc([N+](=O)[O-])nc2O1` [IA10, (R)-2-{4-[4-(3-fluorophenyl)-1H-1,2,3-triazol-1-yl]phenoxymethyl}-2,3-dihydro-2-methyl-6-nitroimidazo[2,1-b]oxazole], for which, in data set [1] (setting [3]), the MIC is 2 µg/mL (≈ 4.58 µM). Further, the Cytotoxicity in data set [2] was above 40 µg/mL.
Consider `C[C@]1(COc2ccc(NC(=S)Nc3ccc(C(F)(F)F)cc3)cc2)Cn2cc([N+](=O)[O-])nc2O1` [IIA10, (R)-1-(4-trifluoromethylphenyl)-3-{4-(2-methyl-6-nitro-2,3-dihydroimidazo[2,1-b]oxazol-2-yl)methoxyphenyl}thiourea], for which the minimal inhibitory concentration (MIC) in data set [1] (setting [3]) worked out at 4 µg/mL (≈ 8.11 µM). Moreover, the Cytotoxicity in data set [2] is above 40 µg/mL.
The like results for `C[C@]1(COc2ccc(NC(=S)Nc3ccc(F)cc3)cc2)Cn2cc([N+](=O)[O-])nc2O1` [IIA9, (R)-1-(4-fluorophenyl)-3-{4-(2-methyl-6-nitro-2,3-dihydroimidazo[2,1-b]oxazol-2-yl)methoxyphenyl}thiourea] were, in that order, 4 µg/mL (≈ 9.02 µM) and above 40 µg/mL.
Take `C[C@]1(COc2ccc(-n3nnnc3Oc3ccc(OC(F)(F)F)cc3)cc2)Cn2cc([N+](=O)[O-])nc2O1` [IB10, (R)-2-{4-[5-(4-trifluoromethoxyphenoxy)-1H-tetrazol-1-yl]phenoxymethyl}-2,3-dihydro-2-methyl-6-nitroimidazo[2,1-b]oxazole]: the MIC is 1 µg/mL (≈ 1.93 µM) in data set [1] (setting [3]) and 1 to 4 µg/mL (≈ 1.93 to 7.7 µM) in data set [1] (setting [4]). The same compound gave a Cytotoxicity in data set [2] above 40 µg/mL.
As for `C[C@]1(COc2ccc(-c3cc(-c4cccc(F)c4)on3)cc2)Cn2cc([N+](=O)[O-])nc2O1` [IC8, (R)-2-{4-[5-(3-fluorophenyl)isoxazol-3-yl]phenoxymethyl}-2,3-dihydro-2-methyl-6-nitroimidazo[2,1-b]oxazole], the MIC in data set [1] (setting [3]) turned out to be 2 µg/mL (≈ 4.58 µM). Further, the Cytotoxicity in data set [2] was above 40 µg/mL.
For the compound `C[C@]1(COc2ccc(S(=O)(=O)Nc3ccc(C(F)(F)F)cc3)cc2)Cn2cc([N+](=O)[O-])nc2O1` [IIB3, (R)-4-{(2-methyl-6-nitro-2,3-dihydroimidazo[2,1-b]oxazol-2-yl)methoxy}-N-(4 trifluoromethylphenyl)benzenesulfonamide], in data set [1] (setting [3]), the MIC is 2 µg/mL (≈ 4.01 µM). Moreover, the Cytotoxicity in data set [2] was above 40 µg/mL.
On the same counts, the results for `C[C@]1(COc2ccc(S(=O)(=O)Nc3ccc(OC(F)(F)F)cc3)cc2)Cn2cc([N+](=O)[O-])nc2O1` [IIB2, (R)-4-{(2-methyl-6-nitro-2,3-dihydroimidazo[2,1-b]oxazol-2-yl)methoxy}-N-(4 trifluoromethoxyphenyl)benzenesulfonamide] are 2 µg/mL (≈ 3.89 µM) and above 40 µg/mL.
Consider `C[C@]1(COc2ccc(S(=O)(=O)N3CCN(c4ccc(F)cc4)CC3)cc2)Cn2cc([N+](=O)[O-])nc2O1` [IIC2, (R)-2-{4-[4-(4-fluorophenyl)piperazin-1-yl]sulfonylphenoxymethyl}-2,3-dihydro-2-methyl-6-nitroimidazo[2,1-b]oxazole], for which the minimal inhibitory concentration (MIC) in data set [1] (setting [3]) stood at 2 µg/mL (≈ 3.86 µM). The Cytotoxicity in data set [2] was above 40 µg/mL.
In the case of `C[C@]1(COc2ccc(-n3nnnc3-c3ccc(C(F)(F)F)cc3)cc2)Cn2cc([N+](=O)[O-])nc2O1` [IB5, (R)-2-{4-[5-(4-trifluoromethylphenyl)-1H-tetrazol-1-yl]phenoxymethyl}-2,3-dihydro-2-methyl-6-nitroimidazo[2,1-b]oxazole], the MIC was 1 µg/mL (≈ 2.05 µM) in data set [1] (setting [3]) and 1 to 4 µg/mL (≈ 2.05 to 8.21 µM) in data set [1] (setting [4]). Also, the Cytotoxicity in data set [2] is above 40 µg/mL.
`C[C@]1(COc2ccccc2-n2cc(-c3ccc(OC(F)(F)F)cc3)nn2)Cn2cc([N+](=O)[O-])nc2O1` [IA23, (R)-2-{2-[4-(4-trifluoromethoxyphenyl)-1H-1,2,3-triazol-1-yl]phenoxymethyl}-2,3-dihydro-2-methyl-6-nitroimidazo[2,1-b]oxazole]: the MIC in data set [1] (setting [3]) was 4 µg/mL (≈ 7.96 µM). The Cytotoxicity in data set [2] is above 40 µg/mL.
The like results for `CC(C)c1ccc(-c2cn(-c3ccc(OC[C@@]4(C)Cn5cc([N+](=O)[O-])nc5O4)cc3)nn2)cc1` [IA9, (R)-2-{4-[4-(4-isopropylphenyl)-1H-1,2,3-triazol-1-yl]phenoxymethyl}-2,3-dihydro-2-methyl-6-nitroimidazo[2,1-b]oxazole] were, in that order, 1 µg/mL (≈ 2.17 µM) and above 40 µg/mL.
`C[C@]1(COc2ccc(-n3nnnc3-c3ccc(OC(F)(F)F)cc3)cc2)Cn2cc([N+](=O)[O-])nc2O1` [IB2, (R)-2-{4-[5-(4-trifluoromethoxyphenyl)-1H-tetrazol-1-yl]phenoxymethyl}-2,3-dihydro-2-methyl-6-nitroimidazo[2,1-b]oxazole]: the minimal inhibitory concentration (MIC) was 2 µg/mL (≈ 3.97 µM) in data set [1] (setting [3]) and 1 to 4 µg/mL (≈ 1.99 to 7.95 µM) in data set [1] (setting [4]). This compound also had a Cytotoxicity in data set [2] above 40 µg/mL.
On to `C[C@]1(COc2ccc(-c3cc(COc4ccccc4)on3)cc2)Cn2cc([N+](=O)[O-])nc2O1` [IC21, (R)-2-{4-[5-(phenoxymethyl)isoxazol-3-yl]phenoxymethyl}-2,3-dihydro-2-methyl-6-nitroimidazo[2,1-b]oxazole], for which, in data set [1] (setting [3]), the MIC came to 4 µg/mL (≈ 8.92 µM). The compound further displayed a Cytotoxicity in data set [2] above 40 µg/mL.
Take `C[C@]1(COc2ccc(-n3nnnc3-c3ccc(F)cc3)cc2)Cn2cc([N+](=O)[O-])nc2O1` [IB4, (R)-2-{4-[5-(4-fluorophenyl)-1H-tetrazol-1-yl]phenoxymethyl}-2,3-dihydro-2-methyl-6-nitroimidazo[2,1-b]oxazole]: the minimal inhibitory concentration (MIC) was 4 µg/mL (≈ 9.15 µM) in data set [1] (setting [3]) and 1 to 4 µg/mL (≈ 2.29 to 9.15 µM) in data set [1] (setting [4]). Also, the Cytotoxicity in data set [2] is above 40 µg/mL.
Turning to `CCCCCCCc1cn(-c2ccc(OC[C@@]3(C)Cn4cc([N+](=O)[O-])nc4O3)cc2)nn1` [IA16, (R)-2-{4-[4-heptyl-1H-1,2,3-triazol-1-yl]phenoxymethyl}-2,3-dihydro-2-methyl-6-nitroimidazo[2,1-b]oxazole], the MIC in data set [1] (setting [3]) worked out at 4 µg/mL (≈ 9.08 µM). The Cytotoxicity in data set [2] was above 40 µg/mL.
As for `Cc1ccc(OCc2cn(-c3cccc(OC[C@@]4(C)Cn5cc([N+](=O)[O-])nc5O4)c3)nn2)cc1` [IA37], the MIC in data set [1] (setting [3]) is 4 µg/mL (≈ 8.65 µM). In addition, the Cytotoxicity in data set [2] is above 40 µg/mL.
On the same counts, the results for `C[C@]1(COc2ccc(-c3cc(-c4ccccn4)on3)cc2)Cn2cc([N+](=O)[O-])nc2O1` [IC9, (R)-2-{4-[5-(pyridin-2-yl)isoxazol-3-yl]phenoxymethyl}-2,3-dihydro-2-methyl-6-nitroimidazo[2,1-b]oxazole] are 2 µg/mL (≈ 4.77 µM) and above 40 µg/mL.
On the same counts, the results for `Cc1ccc(NS(=O)(=O)c2ccc(OC[C@@]3(C)Cn4cc([N+](=O)[O-])nc4O3)cc2)cc1` [IIB1, (R)-4-{(2-methyl-6-nitro-2,3-dihydroimidazo[2,1-b]oxazol-2-yl)methoxy}-N-(p-tolyl)benzenesulfonamide] are 2 µg/mL (≈ 4.5 µM) and above 40 µg/mL.
On to `CC(C)c1ccc(OCc2cn(-c3cccc(OC[C@@]4(C)Cn5cc([N+](=O)[O-])nc5O4)c3)nn2)cc1` [IA38], for which, in data set [1] (setting [3]), the MIC turned out to be 4 µg/mL (≈ 8.15 µM). In data set [2], this compound returned a Cytotoxicity above 40 µg/mL.
On the same counts, the results for `C[C@]1(COc2ccccc2-n2cc(-c3ccc(F)cc3)nn2)Cn2cc([N+](=O)[O-])nc2O1` [IA21, (R)-2-{2-[4-(4-fluorophenyl)-1H-1,2,3-triazol-1-yl]phenoxymethyl}-2,3-dihydro-2-methyl-6-nitroimidazo[2,1-b]oxazole] are 1 µg/mL (≈ 2.29 µM) and above 40 µg/mL.
As to `C[C@]1(COc2ccc(-n3nnnc3-c3ccccc3)cc2)Cn2cc([N+](=O)[O-])nc2O1` [IB1, (R)-2-{4-[5-phenyl-1H-tetrazol-1-yl]phenoxymethyl}-2,3-dihydro-2-methyl-6-nitroimidazo[2,1-b]oxazole], the minimum inhibitory concentration (MIC) in data set [1] (setting [3]) is 2 µg/mL (≈ 4.77 µM); in data set [1] (setting [4]), 1 to 4 µg/mL (≈ 2.38 to 9.54 µM). The compound also gave a Cytotoxicity in data set [2] above 40 µg/mL.

The values are drawn from patent US9845330B2, “6-nitro-2,3-dihydroimidazo[2,1-b]oxazoles and a process for the preparation thereof” (priority 2013, dated 2017).
